Publication PMC6358863, “Involvement of the Hydroperoxy Group in the Irreversible Inhibition of Leukocyte-Type 12-Lipoxygenase by Monoterpene Glycosides Contained in the Qing Shan Lu Shui Tea” (Molecules, 2019)
Like-named read-outs stand apart in the source and are kept apart here.

Columns and labels:
[1] = biological target: T1, leukocyte-type 12-lipoxygenase (Mus musculus, UniProt P39654); experiment: leukocyte-type 12-lipoxygenase inhibition assay (arachidonic acid, HPLC quantification); type: biochemical; conditions: 25 μM arachidonic acid, 30 °C, 5 min; for inhibitory effect on leukocyte-type 12-lipoxygenase activity (in words): various concentrations (Figure 5)
T1 sequence (P39654 1-663): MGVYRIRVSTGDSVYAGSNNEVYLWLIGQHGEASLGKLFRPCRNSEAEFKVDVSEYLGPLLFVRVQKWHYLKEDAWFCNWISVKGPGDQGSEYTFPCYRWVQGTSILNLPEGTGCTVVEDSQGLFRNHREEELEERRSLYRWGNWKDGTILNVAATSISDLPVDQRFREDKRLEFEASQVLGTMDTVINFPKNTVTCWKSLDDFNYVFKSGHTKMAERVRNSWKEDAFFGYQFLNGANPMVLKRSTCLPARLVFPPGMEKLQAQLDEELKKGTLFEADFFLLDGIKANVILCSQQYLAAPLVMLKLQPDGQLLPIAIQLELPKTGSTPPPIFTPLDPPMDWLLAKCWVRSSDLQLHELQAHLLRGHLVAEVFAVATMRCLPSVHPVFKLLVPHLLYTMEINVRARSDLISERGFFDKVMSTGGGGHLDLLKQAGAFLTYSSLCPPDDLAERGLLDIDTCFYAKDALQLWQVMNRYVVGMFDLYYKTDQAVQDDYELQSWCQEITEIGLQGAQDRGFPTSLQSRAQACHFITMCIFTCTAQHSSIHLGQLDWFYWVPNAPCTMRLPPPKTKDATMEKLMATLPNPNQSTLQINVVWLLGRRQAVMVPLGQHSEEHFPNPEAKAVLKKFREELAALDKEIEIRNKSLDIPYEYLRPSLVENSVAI
Method: Figure 3 Inhibition of the leukocyte-type 12-lipoxygenase activity by liguroside C (closed circles) and liguroside D (open circles). Leukocyte-type 12-lipoxygenase was incubated with 25 μM arachidonic acid at 30 °C for 5 min in the standard reaction mixture, in the presence of inhibitors at various concentrations and the products were quantified using a reverse-phase HPLC. Relative enzyme activities, as compared with the activity without inhibitors, are shown.
Figure 5 Inhibition of the leukocyte-type 12-lipoxygenase activity by liguroside A (closed circles), kudingoside B (grey circles), kudingoside A (open circles), and lipedoside B-III (open lozenges). Leukocyte-type 12-lipoxygenase was incubated with 25 μM arachidonic acid, at 30 °C, for 5 min, in the standard reaction mixture in the presence of inhibitors, at various concentrations, and the products were quantified using a reverse-phase HPLC. Relative enzyme activities, as compared with the activity without inhibitors, are shown.
The lipoxygenase and cyclooxygenase reactions were carried out, as described previously. Briefly, leukocyte-type 12-lipoxygenase or 15-lipoxygenase-1 was preincubated with inhibitors, in a volume of 0.2 mL in 100 mM Tris-HCl buffer, at pH 7.4, for 5 min at 30 °C, and was then incubated with 25 μM arachidonic acid for 5 min at 30 °C. Platelet-type 12-lipoxygenase reaction was carried out the as same as leukocyte-type 12-lipoxygenase reaction, except for incubation condition of 30 min at 37 °C. 5-Lipoxygenase was preincubated in 100 mM Tris-HCl buffer at pH 7.4, 2 mM CaCl2, and 2 mM ATP, with inhibitors, for 5 min on ice and then incubated with 25 μM arachidonic acid, for 5 min at 30 °C. To reduce the metabolites of each lipoxygenase isozyme, we added glutathione peroxidase (0.1 unit) and 5 mM glutathione to the mixture, followed by incubation for another 20 min. The enzyme reactions of cyclooxygenase-1 and cyclooxygenase-2 were carried out, as described previously. Briefly, cyclooxygenase-1 and cyclooxygenase-2 were preincubated with inhibitors in a volume of 0.2 mL in 100 mM Tris-HCl buffer at pH 7.4, 2 μM hematin, and 5 mM tryptophan, for 5 min at 24 °C, and then incubated with 25 μM […], for 5 min at 24 °C. After the reaction was quenched by an addition of 50 mM HCl, 0.5 nmol of 15-HEDE were added as an internal standard for enzyme reactions. The products extracted with ice-cold diethyl ether were analyzed by a reverse-phase HPLC, using a Waters Alliance system equipped with a COSMOSIL 5C18-MS-II column (5-μm particle, 250 × 4.6 mm i.d., Nacalai), with a solvent system of methanol-water-acetic acid (80:20:0.01, v/v), at a flow rate of 1 mL/min, as previously described. Absorption at 235 nm was continuously monitored, using a Waters 2489 UV/Visible detector (Waters, Milford, MA, USA). Protein concentration was determined using a bicinchoninic acid protein assay kit (Thermo Fisher Scientific, Waltham, MA, USA), with bovine serum albumin as a standard.

[2] = biological target: T1, leukocyte-type 12-lipoxygenase; parameters: method as in PMID 23579993; conditions: cited from earlier work
[3] = biological target: T1, leukocyte-type 12-lipoxygenase; experiment: reversibility analysis of leukocyte-type 12-lipoxygenase inhibition (preincubation, 200-fold dilution); type: biochemical
Method: The preincubation mixture was 200-fold diluted 0, 5, 15, and 30 min, before starting the enzyme reaction under the standard condition for the lipoxygenase assay. […] On the other hands, tested ligurosides inhibited the leukocyte-type 12-lipoxygenase activity, even after 30 min, indicating an irreversible inhibition of the enzyme activity (Figure 4). Figure 4 Reversibility analysis of the leukocyte-type 12-lipoxygenase inhibition. The leukocyte-type 12-lipoxygenase was preincubated with 6 μM quercetin, liguroside A, liguroside C, and liguroside D, at 30 °C, for 5 min, and then the mixture was 200-fold diluted in the standard lipoxygenase reaction mixture. After 0, 5, 15, and 30 min, the mixtures were incubated with 25 μM arachidonic acid at 30 °C, for 5 min. […] The products extracted with ice-cold diethyl ether were analyzed by a reverse-phase HPLC, using a Waters Alliance system equipped with a COSMOSIL 5C18-MS-II column (5-μm particle, 250 × 4.6 mm i.d., Nacalai), with a solvent system of methanol-water-acetic acid (80:20:0.01, v/v), at a flow rate of 1 mL/min, as previously described. Absorption at 235 nm was continuously monitored, using a Waters 2489 UV/Visible detector (Waters, Milford, MA, USA). Protein concentration was determined using a bicinchoninic acid protein assay kit (Thermo Fisher Scientific, Waltham, MA, USA), with bovine serum albumin as a standard.

CC(C)=CCC/C(C)=C/CO[C@@H]1O[C@H](CO)[C@@H](OC(=O)/C=C/c2ccc(O)cc2)[C@H](O[C@@H]2O[C@@H](C)[C@H](O)[C@@H](O)[C@H]2O)[C@H]1O [kudingoside A]
inhibitory effect on leukocyte-type 12-lipoxygenase activity (in words) [1]: did not inhibit

C/C(=C\CO[C@@H]1O[C@H](CO)[C@@H](OC(=O)/C=C/c2ccc(O)cc2)[C@H](O[C@@H]2O[C@@H](C)[C@H](O)[C@@H](O)[C@H]2O)[C@H]1O)C/C=C/C(C)(C)O [kudingoside B]
inhibitory effect on leukocyte-type 12-lipoxygenase activity (in words) [1]: lower inhibitory effect

C/C(=C\CO[C@@H]1O[C@H](CO)[C@@H](OC(=O)/C=C\c2ccc(O)cc2)[C@H](O[C@@H]2O[C@@H](C)[C@H](O)[C@@H](O)[C@H]2O)[C@H]1O)C/C=C/C(C)(C)OO [liguroside B]
IC50 ([2]; previous report, read-out: IC50, inhibition of leukocyte-type 12-lipoxygenase activity): 700 nM

C=CC(C)(C/C=C/C(C)(C)OO)O[C@@H]1O[C@H](CO)[C@@H](OC(=O)/C=C/c2ccc(O)cc2)[C@H](O[C@@H]2O[C@@H](C)[C@H](O)[C@@H](O)[C@H]2O)[C@H]1O (stereo partly drawn) [liguroside C, (5E)-7-hydroperoxy-3,7-dimethyl-1,5-octadienyl-3-O-(α-L-rhamnopyranosyl)-(1′′→3′)-(4′′′-O-trans-p-coumaroyl)-β-D-glucopyranoside]
IC50 [1]: 2900 nM

C=C(C)C(CC/C(C)=C/CO[C@@H]1O[C@H](CO)[C@@H](OC(=O)/C=C/c2ccc(O)cc2)[C@H](O[C@@H]2O[C@@H](C)[C@H](O)[C@@H](O)[C@H]2O)[C@H]1O)OO (stereo partly drawn) [liguroside D]
IC50 [1]: 4200 nM

C=CC(C)(CCC=C(C)C)O[C@@H]1O[C@H](CO)[C@@H](OC(=O)/C=C/c2ccc(O)cc2)[C@H](O[C@@H]2O[C@@H](C)[C@H](O)[C@@H](O)[C@H]2O)[C@H]1O (stereo partly drawn) [lipedoside B-III]
inhibitory effect on leukocyte-type 12-lipoxygenase activity (in words) [1]: did not inhibit

O=C(O)C=Cc1ccc(O)cc1 [p-Coumaric acid, reference compound]
inhibition of leukocyte-type 12-lipoxygenase activity (in words) [2]: no inhibition

O=c1c(O)c(-c2ccc(O)c(O)c2)oc2cc(O)cc(O)c12 [quercetin]
inhibition of leukocyte-type 12-lipoxygenase activity at 6 μM (in words) ([3]; preincubated 5 min with 6 μM, no dilution): almost completely inhibited | reversibility of leukocyte-type 12-lipoxygenase inhibition after dilution ([3]; preincubation 6 μM 5 min at 30 °C, 200-fold dilution, 0, 5, 15 and 30 min before reaction): quickly recovered
